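Briefly, cells in 96-well plates were exposed to five compound concentrations for 48 h, and endpoints were estimated by linear interpolation. GI50: concentration for 50% inhibition of growth.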 The source made the active and inactive calls. Cut-off read from the data, not from the text of the source: active = GI50 up to about 1.1 µM and inactive = higher.
What was measured:
Assay in all cases: NCI tumour cell line growth inhibition, 48 h
786-0 = test system: 786-0
A498 = test system: A498
A549 = test system: A549
ACHN = test system: ACHN
BT-549 = test system: BT-549
CAKI-1 = test system: CAKI-1
CCRF-CEM = test system: CCRF-CEM
COLO 205 = test system: COLO 205
DU-145 = test system: DU-145
EKVX = test system: EKVX
HCC 2998 = test system: HCC 2998
HCT-116 = test system: HCT-116
HCT-15 = test system: HCT-15
HL-60 = test system: HL-60
HOP-62 = test system: HOP-62
HOP-92 = test system: HOP-92
HT-29 = test system: HT-29
Hs-578T = test system: Hs-578T
IGROV-1 = test system: IGROV-1
K562 = test system: K562
KM12 = test system: KM12
LOX IMVI = test system: LOX IMVI
M14 = test system: M14
MCF7 = test system: MCF7
MDA-MB-231 = test system: MDA-MB-231
MDA-MB-435 = test system: MDA-MB-435
MDA-N = test system: MDA-N
Malme-3M = test system: Malme-3M
NCI-H226 = test system: NCI-H226
NCI-H23 = test system: NCI-H23
NCI-H460 = test system: NCI-H460
NCI-H522 = test system: NCI-H522
NCI/ADR-RES = test system: NCI/ADR-RES
OVCAR-3 = test system: OVCAR-3
OVCAR-4 = test system: OVCAR-4
OVCAR-5 = test system: OVCAR-5
OVCAR-8 = test system: OVCAR-8
PC-3 = test system: PC-3
RPMI-8226 = test system: RPMI-8226
RXF 393 = test system: RXF 393
SF-268 = test system: SF-268
SF-295 = test system: SF-295
SK-MEL-28 = test system: SK-MEL-28
SK-MEL-2 = test system: SK-MEL-2
SK-MEL-5 = test system: SK-MEL-5
SK-OV-3 = test system: SK-OV-3
SN12C = test system: SN12C
SNB-19 = test system: SNB-19
SNB-75 = test system: SNB-75
SR = test system: SR
SW-620 = test system: SW-620
T47D = test system: T47D
TK-10 = test system: TK-10
U-251 = test system: U-251
UACC-257 = test system: UACC-257
UACC-62 = test system: UACC-62
UO-31 = test system: UO-31
MOLT-4 = test system: MOLT-4
SF-539 = test system: SF-539

`CN(C)CCCc1cccnc1` was tested, and the GI50 (786-0) was > 100 µM (inactive), the GI50 (A498) was > 100 µM (inactive) and the GI50 (A549) was > 100 µM (inactive). For the same molecule, the GI50 (ACHN) was > 100 µM (inactive), the GI50 (BT-549) was > 100 µM (inactive) and the GI50 (CAKI-1) was > 100 µM (inactive). For the same molecule, the GI50 (CCRF-CEM) was > 100 µM (inactive), the GI50 (COLO 205) was > 100 µM (inactive) and the GI50 (DU-145) was > 100 µM (inactive). The GI50 (EKVX) was > 100 µM (inactive), the GI50 (HCC 2998) was > 100 µM (inactive) and the GI50 (HCT-116) was > 100 µM (inactive). For the same molecule, the GI50 (HCT-15) was over 100 µM, the GI50 (HL-60) was > 100 µM (inactive) and the GI50 (HOP-62) was > 100 µM (inactive). For the same molecule, the GI50 (HOP-92) was > 100 µM (inactive), the GI50 (HT-29) was > 100 µM (inactive) and the GI50 (Hs-578T) was > 100 µM (inactive). The GI50 (IGROV-1) was > 100 µM (inactive), the GI50 (K562) was > 100 µM (inactive) and the GI50 (KM12) was > 100 µM (inactive). The GI50 (LOX IMVI) was > 100 µM (inactive), the GI50 (M14) was > 100 µM (inactive) and the GI50 (MCF7) was > 100 µM (inactive). For the same molecule, the GI50 (MDA-MB-231) was > 100 µM (inactive), the GI50 (MDA-MB-435) was > 100 µM (inactive) and the GI50 (MDA-N) was > 100 µM (inactive). The GI50 (Malme-3M) was > 100 µM (inactive), the GI50 (NCI-H226) was > 100 µM (inactive) and the GI50 (NCI-H23) was > 100 µM (inactive). For the same molecule, the GI50 (NCI-H460) was > 100 µM (inactive), the GI50 (NCI-H522) was > 100 µM (inactive) and the GI50 (NCI/ADR-RES) was > 100 µM (inactive). For the same molecule, the GI50 (OVCAR-3) was > 100 µM (inactive), the GI50 (OVCAR-4) was > 100 µM (inactive) and the GI50 (OVCAR-5) was > 100 µM (inactive). The GI50 (OVCAR-8) was > 100 µM (inactive), the GI50 (PC-3) was > 100 µM (inactive) and the GI50 (RPMI-8226) was > 100 µM (inactive). The GI50 (RXF 393) was > 100 µM (inactive), the GI50 (SF-268) was > 100 µM (inactive) and the GI50 (SF-295) was > 100 µM (inactive). The GI50 (SK-MEL-28) was > 100 µM (inactive), the GI50 (SK-MEL-2) was > 100 µM (inactive) and the GI50 (SK-MEL-5) was > 100 µM (inactive). For the same molecule, the GI50 (SK-OV-3) was > 100 µM (inactive), the GI50 (SN12C) was > 100 µM (inactive) and the GI50 (SNB-19) was > 100 µM (inactive). For the same molecule, the GI50 (SNB-75) was 41.7 µM (inactive), the GI50 (SR) was > 100 µM (inactive) and the GI50 (SW-620) was > 100 µM (inactive). For the same molecule, the GI50 (T47D) was > 100 µM (inactive), the GI50 (TK-10) was > 100 µM (inactive) and the GI50 (U-251) was > 100 µM (inactive). For the same molecule, the GI50 (UACC-257) was > 100 µM (inactive), the GI50 (UACC-62) was > 100 µM (inactive) and the GI50 (UO-31) was > 100 µM (inactive).
With `CC(=O)N(C(C)=O)c1cc2c3c(c1)CCCN3CCC2` the GI50 (786-0) was > 10 µM (inactive), the GI50 (A498) was > 10 µM (inactive) and the GI50 (A549) was > 10 µM (inactive). The GI50 (ACHN) was > 10 µM (inactive), the GI50 (BT-549) was > 10 µM (inactive) and the GI50 (CAKI-1) was > 10 µM (inactive). The GI50 (CCRF-CEM) was > 10 µM (inactive), the GI50 (COLO 205) was > 10 µM (inactive) and the GI50 (DU-145) was > 10 µM (inactive). The GI50 (EKVX) was > 10 µM (inactive), the GI50 (HCC 2998) was > 10 µM (inactive) and the GI50 (HCT-116) was > 10 µM (inactive). For the same molecule, the GI50 (HCT-15) was over 10 µM, the GI50 (HL-60) was > 10 µM (inactive) and the GI50 (HOP-62) was > 10 µM (inactive). For the same molecule, the GI50 (HOP-92) was > 10 µM (inactive), the GI50 (HT-29) was > 10 µM (inactive) and the GI50 (Hs-578T) was > 10 µM (inactive). The GI50 (IGROV-1) was > 10 µM (inactive), the GI50 (K562) was > 10 µM (inactive) and the GI50 (KM12) was > 10 µM (inactive). The GI50 (LOX IMVI) was > 10 µM (inactive), the GI50 (M14) was > 10 µM (inactive) and the GI50 (MCF7) was > 10 µM (inactive). For the same molecule, the GI50 (MDA-MB-231) was > 10 µM (inactive), the GI50 (MDA-MB-435) was > 10 µM (inactive) and the GI50 (MDA-N) was > 10 µM (inactive). The GI50 (MOLT-4) was > 10 µM (inactive), the GI50 (Malme-3M) was > 10 µM (inactive) and the GI50 (NCI-H226) was > 10 µM (inactive). The GI50 (NCI-H23) was > 10 µM (inactive), the GI50 (NCI-H460) was > 10 µM (inactive) and the GI50 (NCI-H522) was > 10 µM (inactive). For the same molecule, the GI50 (NCI/ADR-RES) was > 10 µM (inactive), the GI50 (OVCAR-3) was > 10 µM (inactive) and the GI50 (OVCAR-4) was > 10 µM (inactive). The GI50 (OVCAR-5) was > 10 µM (inactive), the GI50 (OVCAR-8) was > 10 µM (inactive) and the GI50 (PC-3) was > 10 µM (inactive). The GI50 (RPMI-8226) was > 10 µM (inactive), the GI50 (RXF 393) was > 10 µM (inactive) and the GI50 (SF-268) was > 10 µM (inactive). For the same molecule, the GI50 (SF-295) was > 10 µM (inactive), the GI50 (SF-539) was > 10 µM (inactive) and the GI50 (SK-MEL-28) was > 10 µM (inactive). The GI50 (SK-MEL-2) was > 10 µM (inactive), the GI50 (SK-MEL-5) was > 10 µM (inactive) and the GI50 (SK-OV-3) was > 10 µM (inactive). For the same molecule, the GI50 (SN12C) was > 10 µM (inactive), the GI50 (SNB-19) was > 10 µM (inactive) and the GI50 (SNB-75) was > 10 µM (inactive). The GI50 (SR) was > 10 µM (inactive), the GI50 (SW-620) was > 10 µM (inactive) and the GI50 (T47D) was > 10 µM (inactive). The GI50 (TK-10) was > 10 µM (inactive), the GI50 (U-251) was > 10 µM (inactive) and the GI50 (UACC-257) was > 10 µM (inactive). The GI50 (UACC-62) was > 10 µM (inactive).
In the case of `Cc1ccc(/N=N/c2c(C)nn(C(=O)CC(=O)Nc3ccccc3)c2C)cc1C`, the GI50 (786-0) is reported as > 100 µM (inactive), the GI50 (A498) is reported as > 100 µM (inactive) and the GI50 (A549) is reported as > 100 µM (inactive). The GI50 (ACHN) was > 100 µM (inactive), the GI50 (BT-549) was > 100 µM (inactive) and the GI50 (CAKI-1) was > 100 µM (inactive). For the same molecule, the GI50 (CCRF-CEM) was > 100 µM (inactive), the GI50 (COLO 205) was > 100 µM (inactive) and the GI50 (DU-145) was > 100 µM (inactive). The GI50 (EKVX) was 26.2 µM (inactive), the GI50 (HCC 2998) was > 100 µM (inactive) and the GI50 (HCT-116) was > 100 µM (inactive). For the same molecule, the GI50 (HCT-15) was over 100 µM, the GI50 (HL-60) was > 100 µM (inactive) and the GI50 (HOP-62) was > 100 µM (inactive). The GI50 (HOP-92) was > 100 µM (inactive), the GI50 (HT-29) was > 100 µM (inactive) and the GI50 (Hs-578T) was > 100 µM (inactive). For the same molecule, the GI50 (IGROV-1) was > 100 µM (inactive), the GI50 (KM12) was > 100 µM (inactive) and the GI50 (LOX IMVI) was > 100 µM (inactive). The GI50 (M14) was > 100 µM (inactive), the GI50 (MCF7) was > 100 µM (inactive) and the GI50 (MDA-MB-231) was > 100 µM (inactive). The GI50 (MDA-MB-435) was > 100 µM (inactive), the GI50 (MDA-N) was > 100 µM (inactive) and the GI50 (MOLT-4) was > 100 µM (inactive). The GI50 (Malme-3M) was > 100 µM (inactive), the GI50 (NCI-H226) was > 100 µM (inactive) and the GI50 (NCI-H23) was > 100 µM (inactive). The GI50 (NCI-H460) was > 100 µM (inactive), the GI50 (NCI-H522) was > 100 µM (inactive) and the GI50 (NCI/ADR-RES) was > 100 µM (inactive). For the same molecule, the GI50 (OVCAR-3) was > 100 µM (inactive), the GI50 (OVCAR-4) was > 100 µM (inactive) and the GI50 (OVCAR-5) was > 100 µM (inactive). For the same molecule, the GI50 (OVCAR-8) was > 100 µM (inactive), the GI50 (PC-3) was > 100 µM (inactive) and the GI50 (RPMI-8226) was > 100 µM (inactive). The GI50 (RXF 393) was > 100 µM (inactive), the GI50 (SF-268) was > 100 µM (inactive) and the GI50 (SF-295) was > 100 µM (inactive). For the same molecule, the GI50 (SF-539) was > 100 µM (inactive), the GI50 (SK-MEL-28) was > 100 µM (inactive) and the GI50 (SK-MEL-2) was > 100 µM (inactive). For the same molecule, the GI50 (SK-MEL-5) was > 100 µM (inactive), the GI50 (SK-OV-3) was > 100 µM (inactive) and the GI50 (SN12C) was > 100 µM (inactive). For the same molecule, the GI50 (SNB-75) was 59.7 µM (inactive), the GI50 (SR) was > 100 µM (inactive) and the GI50 (SW-620) was > 100 µM (inactive). For the same molecule, the GI50 (T47D) was > 100 µM (inactive), the GI50 (TK-10) was > 100 µM (inactive) and the GI50 (U-251) was > 100 µM (inactive). The GI50 (UACC-257) was > 10 µM (inactive), the GI50 (UACC-62) was > 100 µM (inactive) and the GI50 (UO-31) was > 100 µM (inactive).

Source: ChEMBL document CHEMBL1201862, “PubChem BioAssay data set” (2004)
